Test results from patent US20250034575A1, “OLIGONUCLEOTIDES FOR DGAT2, FASN, OPN, AND NOX4 MODULATIONS” (UNIVERSITY OF MASSACHUSETTS, priority 2023, published 2025).

Experiments:
LX2 human stellate cells = assay: Tgf-β driven activation of LX2 human stellate cells with Fasn inhibitor; type: cell-based
Method: In vitro screening of LX2 human stellate cells was executed by plating 500,000 cells/well in 6-well plates overnight at 37° C., 5% CO2 in 0% FBS DMEM medium (11885-076, Gibco). Following a 4-hour pre-treatment with 1 nM or 100 nM Fasn inhibitor (TVB-3664-S8563, Selleck Chemicals), stellate cell activation was initiated by adding recombinant human Tgf-β (240-B-002, R & D Systems) for a 5 ng/mL final concentration. After 48 hours, protein and mRNA were isolated from the cells and further analysis was performed.
Frozen liver tissue punches (25-50 mg) were homogenized in TRIzol (15596018, Thermo Scientific) using the Qiagen TissueLyser II. Chloroform was added to the homogenate and centrifuged for 15 minutes at maximum speed. The clear upper layer was added to an equal volume of 100% isopropanol and incubated for 1 h at 4° C. After 10 min of centrifugation at maximum speed, the supernatant was discarded, and 70 to 75% ethanol was added to wash the pellet. After 5 min of centrifugation at maximum speed, the supernatant was discarded, and the pellet was briefly dried in the hood prior to resuspension in double-distilled water. RNA concentration was measured via the Thermo Scientific NanoDrop2000 spectrophotometer. Complementary DNA was then synthesized from 1 μg of total RNA using iScript cDNA Synthesis Kit (1708890, Bio-Rad) and Bio-Rad T100 thermocycler. Quantitative RT-PCR was performed using iQ SybrGreen Supermix (4368708, Applied Biosystems) on the Bio-Rad CFX96 C1000 Touch Thermal Cycler and analyzed.
(§1) In the analysis of protein expression, cell lysates were homogenized in a RIPA buffer (25 mM Tris, pH 7.4 0.15 M NaCl 0.1% Tween 20) with 1:100 protease inhibitor (78442, Thermo Scientific). The lysates were denatured by boiling, separated on a 4 to 15% SDS/polyacrylamide gel electrophoresis gel (567-1094, Bio-Rad), and transferred to a nitrocellulose membrane (1704159, Bio-Rad). The membrane was blocked using TBS-T with 5% BSA for 1 hour at room temperature and incubated using p-SMAD3 (ab52903, Abcam), type I collagen (1310-30, Southern Biotech), and GAPDH (5174, Cell Signaling). The blot was further washed in TBS-T and incubated at room temperature with its corresponding secondary antibody for 30 minutes. Following another wash, the blot was incubated with ECL (32106, Thermo Scientific) and visualized with the ChemiDox XRS+ image-forming system.
To investigate the role of palmitate production in stellate cell activation, LX2 human stellate cells were treated with a validated, potent and specific small molecule inhibitor of Fasn, TVB-3664, at a final concentration of either 1 nM or 100 nM for 4 hours. Cells were then subjected to 5 ng/mL Tgf-β, a strong stimulator of stellate cell activation. Forty-eight hours later, the morphology of activated stellate cells, with increased cell size and elongation of spindle-like structures, was easily observed in Tgf-β treated cells.

FASN = assay: Cholesterol conjugated Fasn-2314 in Tgfb activated Lx2 cells, Western blotting; type: cell-based, human; conditions: 1.5 uM, Tgfb 5 ng/ml
Method: as §1
Moreover, the protein level of Smad3 was also measured for untreated control, cholesterol conjugated non-targeting control, and cholesterol conjugated Fasn-2314. 1×10^6 of human Lx2 cells were plated in 10 cm2 plates and treated with 1.5 uM cholesterol conjugated Fasn-2314. 24 hrs post treatment Lx2 cells were activated with Tgfb (5 ng/ml) to induce fibrotic phenotype. 48 hrs post activation cells were harvested and processed for Western blotting analysis.

[1] = LX2 cells, 1 nM or 100 nM, 4 hours, then 5 ng/mL Tgf-β, 48 hours

| Molecule | Tgf-β-induced type 1 collagen protein expression (LX2 human stellate cells; [1]) | mRNA levels of Acta2 (LX2 human stellate cells; [1]) | mRNA levels of Col1a1 (LX2 human stellate cells; [1]) | morphological change of activated stellate cells (LX2 human stellate cells; [1]) | phosphorylated SMAD3 protein (LX2 human stellate cells; [1]) | Cpt1a gene expression (LX2 human stellate cells; Tgf-β activated LX2 cells) | Hsp47 gene expression (LX2 human stellate cells; Tgf-β activated LX2 cells) | Nrf2 gene expression (LX2 human stellate cells; Tgf-β activated LX2 cells) | Pgc-1α gene expression (LX2 human stellate cells; Tgf-β activated LX2 cells) | Pparα gene expression (LX2 human stellate cells; Tgf-β activated LX2 cells) | Sirt1 gene expression (LX2 human stellate cells; Tgf-β activated LX2 cells) | anti-fibrotic effect (LX2 human stellate cells; Tgf-β activated LX2 cells) | expression of Nox4 (LX2 human stellate cells; Tgf-β activated LX2 cells) | LC3II protein (autophagy) (FASN) | activation and collagen production in Tgfb treated stellate cells (FASN) | p62 protein (autophagy) (FASN) | phosphorylation of SMAD3 (FASN) |
| --- | --- | --- | --- | --- | --- | --- | --- | --- | --- | --- | --- | --- | --- | --- | --- | --- | --- |
| COCc1[nH]c(C(F)(F)F)nc1-c1cc(C(=O)N2CC(c3ccc(C#N)cc3)C2)c(C)cc1C [TVB-3664] | blocked | reduction | reduction | severely inhibited | reduced | reduction | reduction | remarkable upregulation | remarkable upregulation | remarkable upregulation | remarkable upregulation | strong anti-fibrotic effect | reduction in expression |  |  |  |  |
| FASN 2314: siRNA targeting human FASN; antisense SEQ ID NO: 56, TegChol sense SEQ ID NO: 57 (sense CCGAGUACAAUGUCAA; antisense UUGACAUUGUACUCGGCGGUU; sugars by position and backbone not given here; 2'-F/2'-OMe modifications not assigned, TegChol cholesterol on sense, further chemistry not fully specified) |  |  |  |  |  |  |  |  |  |  |  |  |  | accumulation | blunted | accumulation | blunted |
